In experiment [1] the test system is S. pyogenes. Kind of experiment: RIND VII reduction solution assay, ΔOD 635 nm. The following applies: cell concentration 1.5 × 10^8 /ml, antibiotic 10^-4 molar. Type of experiment: cell-based, Streptococcus pyogenes.
Experiment [2] relates to E. coli. As to the kind of experiment: DCIP reduction solution assay, ΔOD 620 nm. The class given is cell-based, Escherichia coli. The following applies: E. coli (-) 5×10^7, gramicidin S 0.00625 mg/ml, 37° C. The method, then:
(§1) These examples illustrate the differentiation of bacteria using a tetrazolium salt and phenolic dye as the reducible compounds and two cyclic polypeptide antibiotics according to the present invention. The tetrazolium salt was 3-(4,5-dimethyl-2-thiazolyl) -2,5-diphenyl-2H-tetrazolium bromide (MTT) which forms a colored formazan dye when reduced. The phenolic dye was 2,6-dichloroindophenol (DCIP) which forms a colorless species when reduced.
(§2) Solutions of the reducible compounds were prepared with the following: HEPES buffer (3 ml, 0.05 molar, pH 7.5), TRITON X-100 nonionic surfactant (1% concentration), glucose (50 μl of 10% in water), tryptose (50 μl of a 10% solution in water), MTT (25 μl of 5 mg/ml methanol) or DCIP (25 μl of 3 mg/ml methanol) and phenazine methosultate ETA (25 μl of 3 mg/ml methanol).
(§3) Test solutions were prepared from the following: reducible compound solution from above (200 μl), 50 μl of either gramicidin S solution (6 mg/ml methanol and 9 ml of buffer) or tyrocidin solution (100 mg/ml methanol and 8 ml of buffer) and 50 μl of cell suspension. […] The change in optical density (ΔOD) was determined after 30 minutes at 37° C. at 540 nm for the MTT assay and at 620 nm for the DCIP assay using a commercially available spectrophotometer.

Experiment [3] concerns viable gram-positive and gram-negative bacteria. Kind of experiment: Differentiation with dry analytical element, overall result. The class given is cell-based. The following applies: dry analytical element with RIND IX. The method, then: The element used had the format and components illustrated below
The appropriate cell suspension (10 μl) was applied to the spreading/reagent layer of each element. The reflection density (DR) was measured at 640 nm. After 10 minutes of incubation at 37° C., the DR was again measured, giving a ΔDr value. A Control solution (10 μl of either 0.5 molar HEPES or potassium phosphate buffer) was also applied to the elements and the ΔDR was similarly determined. The difference between the two ΔDR values gives a test value corrected for background.

The subject of experiment [4] is K. pneumoniae. Kind of experiment: RIND XXIX reduction solution assay, Δ fluorescence. Type of experiment: cell-based, Klebsiella pneumoniae. The following applies: K. pneumoniae (gram -) about 5×10^7 cells/ml, gramicidin S 0.1 mg/ml, 37° C. On the procedure: Bacterial suspensions were prepared by growing the cells in BHT broth to stationary phase overnight at 37° C. P. auruginosa was grown with agitation. About 40 ml of each overnight culture was centrifuged, decanted and washed once with 0.05 molar potassium phosphate buffer or 0.05 molar N-2-hydroxy-ethylpiperazine-N'-2-ethanesulfonic acid (HEPES) buffer, pH 7.8, and resuspended in buffer.
Dispersions containing RIND compounds were prepared by dissolving the RIND compound in N,N-dimethylformamide (DMF) at 16 mg compound per ml of solvent. An aliquot (250 μl) of the resulting solution was added to 500 μl of TRITON X-100 surfactant. This mixture was then added dropwise with stirring to 25 ml of 0.05 molar HEPES buffer. A dispersion of RIND XXIX was prepared similarly except that DMF was acidified with 0.1% sulfuric acid. Compositions containing water-compatible RIND compounds were prepared as described above except the surfactant was omitted.
Each test solution contained the following: dispersion of RIND XXIX (25 μl) prepared as described above, glucose (400 μl of 10% aqueous solution), tryptose (400 μl of 10% aqueous solution), trimethyl-1,4-benzoquinone ETA (500 μl of 1.5 mg/ml methanol). Aliquots (200 μl) of the mixture were mixed with solutions of the antibiotics (50 μl). The cell suspensions (50 μl) were then added. The final concentration of gramcidin S and tyrocidin were 0.1 mg/ml and 3.3 mg/ml, respectively. The final cell concentration was about 5×10^7 cells/ml. Cell control solutions contained all reagents except antibiotics. Background controls consisted of both buffer and solution controls. […]
The solutions were incubated at 37° C. for 30 minutes, and the change in fluorescence emission (Δ fluorescence) was determined as the difference between the readings taken when the solutions were first mixed and then after 30 minutes incubation. Measurements were made in a commercially available MICROFLUOR Reader (available from Dynatech Laboratories, Alexandria, Virginia, U.S.A.), modified with an excitation filter at 540 nm, an emission filter at 620 nm and a Xenon lamp. […]

Experiment [5] concerns P. vulgaris. As to the kind of experiment: MTT reduction solution assay, ΔOD 540 nm. Type of experiment: cell-based, Proteus vulgaris. The following applies: P. vulgaris (-) 5×10^7, gramicidin S 0.00625 mg/ml, 37° C. The method, then:
as §1, §2, §3

Experiment [6] deals with S. aureus. As to the kind of experiment: Inhibition of RIND IX reduction by various cyclic polypeptide antibiotics. The following applies: for Corrected % Inhibition: 635 nm. Type of experiment: cell-based, Staphylococcus aureus. On the procedure: The following materials were used in this example: stock solutions of RIND IX compound dispersion prepared as described above, glucose (10% in water), trimethyl-1,4-benzoquinone ETA (1.5 mg/ml methanol), and the antibiotics (1 mg/ml in dimethylsulfoxide). S. aureus cells were grown as described above. The final cell concentration in the assay mixture was about 4.3×10^8 cells/ml.
Test solutions were prepared by adding in the order: 1.2 ml of HEPES buffer, 50 μl glucose solution, 1.5 ml of RIND IX dispersion, 100 μl of antibiotic solution, 100 μl of cell suspension and 25 μl of ETA solution. Control solutions were prepared as described in Examples 2 and 3. Optical density readings (OD) were measured at 635 nm at 0 minutes and after incubation at 37° C. for 30 minutes for test and control solutions, and the change in density (ΔOD) was determined. Table VI below lists the results, expressed as corrected percent inhibition of the reduction of the RIND compound. The corrected percent inhibition is calculated by dividing the difference between the ΔOD obtained from the Cell Control without antibiotic and the ΔOD of the test solution, by ΔOD of the Cell Control without antibiotic. All readings were corrected by subtracting readings of the appropriate background Controls.
Solutions containing 2.9 ml HEPES, 50 μl of the antibiotic solution and 100 μl cell solution were incubated at 37° C. for 30 minutes, centrifuged for 10 minutes and decanted. The resulting pellet was then treated with 1.4 ml HEPES, 50 μl glucose solution, 1.5 ml RIND IX dispersion and 25 μl ETA solution, mixed well and the densities recorded as described above in Method 1. The corrected percent inhibition data was calculated as described in Method 1 above.

This note sets out measurements from patent US4912036A, “Rapid differentiation of bacteria using cyclic polypeptide antibiotics” (Eastman Kodak Company, priority 1986, dated 1990).

Consider gramicidin S, for which, in experiment [1], the “Corrected ΔOD (15 Minutes)” value was 0.186. The “ΔOD, 620 nm after 30 Minutes” value in experiment [2] is 1.042. In addition, in experiment [3], the “differentiation between viable gram-positive and gram-negative bacteria in an element, in words” value is “can be used in an element to differentiate between viable gram-positive and gram-negative bacteria”. The “Δ Fluorescence (30 Minutes)” value in experiment [4] was determined as 3084. In experiment [5], the “ΔOD, 540 nm after 30 Minutes” value stood at 0.841. The “inhibition of the ability of S. aureus to reduce the RIND compound, in words” value in experiment [6] (Methods 1 and 2) is on record as “inhibits the ability of S. aureus, a gram-positive bacterium, to reduce the RIND compound”. Further, the “Corrected % Inhibition” value in experiment [6] (Test Method 1 (antibiotic in the test solution), S. aureus about 4.3×10^8 cells/ml, 100 μl of 1 mg/ml antibiotic solution, 30 minutes at 37° C.) was found to be 95.6%; in experiment [6] (Test Method 2 (cells preincubated with 50 μl antibiotic solution 30 minutes, centrifuged, pellet assayed), S. aureus), 80.0%.
